Results from patent publication US7589123B2, “Chemical compounds” (Phytopharm PLC, priority 2006, dated 2009).

Key:
TRPV1 receptor [1] = target: T1, TRPV1 receptor (Rattus norvegicus, UniProt O35433); test: TRPV1 receptor modulation in the rat vas deferens, EFS-induced contraction (Assay 1); conditions: electrical field stimulation
Method: Wistar derived male rats (275±25 g) were suppressed by CO2 overexposure. The vas deferens was removed, placed in Krebs solution, pH 7.4 (composition in g/l: NaCl 6.89, KCl 0.35, CaCl2 0.277, KH2PO4 0.163, MgSO4.7H2O 0.296, NaHCO3 2.1 glucose 1.8) and excess fat and connective tissue removed. The portion of the vas deferens closest to the prostate was cut in half and each half was placed under 1 g tension in a 10 ml bath containing Krebs solution at 32° C. The tissue was contracted by electrical field stimulation (EFS; 60% of maximum stimulation, 0.015 Hz, 0.5 ms in duration) and contractile responses were measured.

[2] = tested on: IL-1α-induced PGE2 release; test: IL-1α-induced PGE2 release in human diploid lung fibroblasts (WI-38) (Assay 5); type: cell-based; conditions: WI-38 cells, IL-1α 1 nM, overnight
Summary of the method: (§1)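 Cell viability was read by Alamar Blue fluorescence (530/590 nm) after 4 h at 37 °C, following an overnight 37 °C incubation of human lung fibroblasts with 1 nM IL-1α and compound (3 or 30 μM) in 10% FBS MEM, pH 7.3. Supernatant PGE2 was measured by radioimmunoassay to derive percent inhibition.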

[3] = tested on: histamine-induced contractions in guinea pig ileum; test: Inhibition of histamine-induced contractions in guinea pig ileum (Assay 3); conditions: histamine 1.7 μM
Summary of the method: (§2)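 Ileal strips from male Duncan Hartley guinea pigs were held at 1 g tension in 32° C oxygenated Krebs (pH 7.4) with isotonic transducers. After control contractions to 5-HT (2.6 μM) or histamine (1.7 μM), compound at 3 and 30 μM was added, its own effect noted, and agonist re-applied.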

TRPV1 receptor [4] = target: T1, TRPV1 receptor; test: TRPV1 modulation in DRG neurones: CGRP release in absence and presence of capsaicin (Assay 2); type: cell-based; set-up: The culture used for this experiment contained sensory neurones, Schwann cells and fibroblasts; endogenous in cells; host or cells: primary rat DRG sensory neurone culture (with Schwann cells and fibroblasts); conditions: for Effect of test compounds on capsaicin (1 μM)-induced CGRP release (%): −ve: inhibition, +ve: potentiation of capsaicin response; for CGRP release (% of capsaicin (1 μM) response): rat DRG sensory neurones, 20 min
guinea pig ileum = test: Effect of test compound alone on guinea pig ileum contraction (Assay 3)
Method: Duncan Hartley derived male guinea pigs (325±25 g) were suppressed by CO2 overexposure, the abdominal cavity was exposed and ileal segments were removed. Small strips of ileum were suspended in organ baths containing Krebs solution (composition in g/l: NaCl 6.89, KCl 0.35, CaCl2 0.277, KH2PO4 0.163, MgSO4.7H2O 0.296, NaHCO3 2.1 glucose 1.8). The solution was kept at 32° C. and gassed with O2 (95%)-CO2 (5%) to maintain pH at 7.4. Mechanical activity was recorded by means of isotonic transducers. A resting tension of 1 g was applied to muscle strips before being equilibrated for 1 h, prior to test compound addition. Each preparation was washed twice at 15 min intervals during the equilibration.
Histamine (1.7 μM; approximately EC60-70) or 5-hydroxytryptamine (5-HT, 2.6 μM; approximately EC60-70) was applied for 5 min and the amplitude of the contraction recorded. The histamine or 5-HT was then washed out until the ileal tissue returned to baseline. Five min after returning to baseline test compound (3 and 30 μM) was applied and the amplitude of the contraction (if any) was recorded. In the continuous presence of test compound, histamine or 5-HT was re-applied and the inhibition of the response was recorded.

WI-38 cells = test: Viability of WI-38 cells, Alamar Blue (Assay 5); type: cell-based, human
Summary of the method: as §1

[5] = tested on: α-smooth muscle actin (α-SMA) mRNA; test: Anti-remodelling activity in human lung fibroblasts (HFL1): TGFβ-induced α-SMA mRNA (Assay 4); type: cell-based; conditions: HFL1 cells, TGFβ 10 ng/ml, 24 h
Summary of the method: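 Real-time RT-PCR of α-SMA mRNA, GAPDH as reference, measured after 24 h exposure of low-serum-primed HFL1 cells to 10 ng/ml TGFβ with test compounds (3 and 30 μM) in 10% FBS medium. Readout is inhibition of TGFβ-driven α-SMA mRNA overexpression.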

5-lipoxygenase = target: T2, 5-lipoxygenase (Homo sapiens, UniProt P09917); test: 5-lipoxygenase activity (LTB4) in human peripheral blood mononuclear leukocytes (Assay 6); type: cell-based; conditions: human PBMLs, A23187 30 μM
T2 construct: endogenous in cells; host or cells: human peripheral blood mononuclear leukocytes (PBMLs)
T2 sequence (P09917 1-674): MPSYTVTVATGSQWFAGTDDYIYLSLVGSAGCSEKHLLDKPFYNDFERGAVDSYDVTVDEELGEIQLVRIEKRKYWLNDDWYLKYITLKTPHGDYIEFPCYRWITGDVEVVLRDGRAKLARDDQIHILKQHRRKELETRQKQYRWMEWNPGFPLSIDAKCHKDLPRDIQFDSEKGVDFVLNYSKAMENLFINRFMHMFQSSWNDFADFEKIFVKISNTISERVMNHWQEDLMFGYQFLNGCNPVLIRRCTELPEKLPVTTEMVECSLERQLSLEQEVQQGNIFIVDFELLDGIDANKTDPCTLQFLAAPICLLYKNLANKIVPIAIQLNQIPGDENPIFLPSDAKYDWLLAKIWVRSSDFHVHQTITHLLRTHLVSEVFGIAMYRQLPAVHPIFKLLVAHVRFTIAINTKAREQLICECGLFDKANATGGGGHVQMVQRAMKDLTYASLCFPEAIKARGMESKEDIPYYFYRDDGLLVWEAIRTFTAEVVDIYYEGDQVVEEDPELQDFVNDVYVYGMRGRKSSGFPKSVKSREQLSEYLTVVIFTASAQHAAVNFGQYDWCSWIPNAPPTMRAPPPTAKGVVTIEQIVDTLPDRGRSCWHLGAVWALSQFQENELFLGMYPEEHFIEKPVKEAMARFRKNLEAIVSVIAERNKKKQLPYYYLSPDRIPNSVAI
Summary of the method: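 LTB4 in supernatant quantified by EIA after 15 min at 37° C. in HBSS, pH 7.4, where Ficoll-isolated human PBMLs (5×10^6) received ionophore A23187 (30 μM) and test compound (3 and 30 μM) or 0.1% DMSO vehicle.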

[6] = tested on: 5-HT-induced contractions in guinea pig ileum; test: Inhibition of 5-HT-induced contractions in guinea pig ileum (Assay 3); conditions: 5-HT 2.6 μM
Summary of the method: as §2

T1 sequence (O35433 whole entry): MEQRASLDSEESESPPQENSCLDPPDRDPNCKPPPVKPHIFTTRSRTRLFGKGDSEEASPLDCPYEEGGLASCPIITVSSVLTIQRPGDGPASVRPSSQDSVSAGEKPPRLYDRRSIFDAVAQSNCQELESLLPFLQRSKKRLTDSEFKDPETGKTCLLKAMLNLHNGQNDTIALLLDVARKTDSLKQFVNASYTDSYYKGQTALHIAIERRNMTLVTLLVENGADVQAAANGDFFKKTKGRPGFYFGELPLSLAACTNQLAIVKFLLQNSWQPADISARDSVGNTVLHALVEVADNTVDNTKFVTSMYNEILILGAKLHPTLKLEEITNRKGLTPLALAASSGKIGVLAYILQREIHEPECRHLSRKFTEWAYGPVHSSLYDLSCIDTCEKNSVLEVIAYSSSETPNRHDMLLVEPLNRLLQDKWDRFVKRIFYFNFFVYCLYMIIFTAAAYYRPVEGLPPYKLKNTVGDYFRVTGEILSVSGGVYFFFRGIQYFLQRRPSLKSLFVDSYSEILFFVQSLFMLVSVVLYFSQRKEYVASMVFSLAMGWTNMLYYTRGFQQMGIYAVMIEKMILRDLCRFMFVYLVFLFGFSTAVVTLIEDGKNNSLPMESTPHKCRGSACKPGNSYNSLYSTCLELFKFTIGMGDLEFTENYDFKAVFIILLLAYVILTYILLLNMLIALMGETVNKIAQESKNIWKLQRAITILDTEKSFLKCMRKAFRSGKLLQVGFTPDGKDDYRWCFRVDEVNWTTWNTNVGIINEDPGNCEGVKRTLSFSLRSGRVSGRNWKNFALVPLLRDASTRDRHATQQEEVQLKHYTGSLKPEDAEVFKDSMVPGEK

Compound	Inhibition of IL-1α-induced PGE2 release (%) ([2]; 3 μM)	Inhibition of IL-1α-induced PGE2 release (%) ([2]; 30 μM)	Inhibition of histamine-induced contraction (%) ([3]; 3 μM)	Inhibition of histamine-induced contraction (%) ([3]; 30 μM)	Effect of test compounds on capsaicin (1 μM)-induced CGRP release (%) (TRPV1 receptor [4]; 3 μM with capsaicin 1 μM)	Effect of test compounds on capsaicin (1 μM)-induced CGRP release (%) (TRPV1 receptor [4]; 30 μM with capsaicin 1 μM)	CGRP release (% of capsaicin (1 μM) response) (TRPV1 receptor [4]; test compound alone 3 μM) [%]	CGRP release (% of capsaicin (1 μM) response) (TRPV1 receptor [4]; test compound alone 30 μM) [%]	Contraction of guinea pig ileum relative to 5-HT-induced contraction (guinea pig ileum; 3 μM)	Contraction of guinea pig ileum relative to histamine-induced contraction (guinea pig ileum; 3 μM)	Contraction of guinea pig ileum relative to 5-HT-induced contraction (guinea pig ileum; 30 μM)	Contraction of guinea pig ileum relative to histamine-induced contraction (guinea pig ileum; 30 μM)	Decrease in cell viability (%) (WI-38 cells; 3 μM)	Decrease in cell viability (%) (WI-38 cells; 30 μM)	Inhibition of α-SMA mRNA synthesis (%) ([5]; 3 μM)	Inhibition of α-SMA mRNA synthesis (%) ([5]; 30 μM)	Inhibition of 5-LO (%) (5-lipoxygenase; 3 μM)	Inhibition of 5-LO (%) (5-lipoxygenase; 30 μM)	Inhibition of 5-HT-induced contraction (%) ([6]; 3 μM)	Inhibition of 5-HT-induced contraction (%) ([6]; 30 μM)	further results
COc1cc(CCC(=O)CC(=O)C(C)C)ccc1O [Compound 1]	68	101	0	11	−36	−24	26	41	0	0	0	0	3	−10	12	34	26	63	0	20	Inhibition of EFS response relative to capsaicin (TRPV1 receptor [1]): 27%
COc1cc(CCC(=O)CC(=O)c2ccc(Cl)c(Cl)c2)ccc1O [Compound 23, 1-(3,4-Dihlorophenyl)-5-(4-hydroxy-3-methoxyphenyl)pentane-1,3-dione]	84	100	8	37	−2	47	84	242	0	0	0	0	6	16	13	79	63	98	11	25	–
COc1cc(CCC(=O)CC(=O)c2ccc(Cl)cc2Cl)ccc1O [Compound 24, 1-(2,4-Dihlorophenyl)-5-(4-hydroxy-3-methoxyphenyl)pentane-1,3-dione]	93	100	12	59	−13	2	92	193	0	0	0	0	7	26	8	80	45	97	5	98	–
CCC(=O)CC(=O)CCc1ccc(O)c(OC)c1 [3-gingerdione, reference compound]	61	99	5	14	−37	−43	17	18	0	0	0	0	4	5	13	24	−5	73	0	5	–
